In ChEMBL document CHEMBL1201862, “PubChem BioAssay data set” (2004):
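All cell lines were grown in 96-well plates and treated with compound for 48 hours. GI50 = concentration required for 50% inhibition of growth.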 Calls of active or inactive are those of the source. Rule as the data show it: active = GI50 up to about 1.1 µM and inactive = higher.

What was measured:
Experiment in all cases: NCI-60 cell line screen, 48 h
HL-60 = system: HL-60
MDA-MB-231 = system: MDA-MB-231
SW-620 = system: SW-620
NCI/ADR-RES = system: NCI/ADR-RES
SK-MEL-5 = system: SK-MEL-5
KM12 = system: KM12
SF-295 = system: SF-295
A549 = system: A549
UACC-257 = system: UACC-257
LOX IMVI = system: LOX IMVI
SF-268 = system: SF-268
SNB-75 = system: SNB-75
NCI-H226 = system: NCI-H226
OVCAR-4 = system: OVCAR-4
PC-3 = system: PC-3
Hs-578T = system: Hs-578T
HCC 2998 = system: HCC 2998
CCRF-CEM = system: CCRF-CEM
EKVX = system: EKVX
SK-OV-3 = system: SK-OV-3

SMILES	GI50 (HL-60)	GI50 (MDA-MB-231)	GI50 (SW-620)	GI50 (NCI/ADR-RES)	GI50 (SK-MEL-5)	GI50 (KM12)	GI50 (SF-295)	GI50 (A549)	GI50 (UACC-257)	GI50 (LOX IMVI)	GI50 (SF-268)	GI50 (SNB-75)	GI50 (NCI-H226)	GI50 (OVCAR-4)	GI50 (PC-3)	GI50 (Hs-578T)	GI50 (HCC 2998)	GI50 (CCRF-CEM)	GI50 (EKVX)	GI50 (SK-OV-3)
COc1ccc(C2C(C#N)=C(S)N(C3OC(CO)C(O)C(O)C3O)C(c3ccccc3)=C2C(C)=O)cc1 (configuration not stated)	39.7 µM (inactive)	95.5 µM (inactive)	7.18 µM (inactive)	> 100 µM (inactive)	25.1 µM (inactive)	> 100 µM (inactive)	> 100 µM (inactive)	> 100 µM (inactive)	77.4 µM (inactive)	60.1 µM (inactive)	45.7 µM (inactive)	23.6 µM (inactive)	> 100 µM (inactive)	> 10 µM (inactive)	48.2 µM (inactive)	45.3 µM (inactive)	92 µM (inactive)	63.1 µM (inactive)	–	–
COc1ccccc1Cc1ccc(C2C=CC3(CC(=O)C=C3C)C(=O)C2)o1 (configuration not stated)	17.7 µM (inactive)	21 µM (inactive)	18.5 µM (inactive)	24.7 µM (inactive)	15.6 µM (inactive)	29 µM (inactive)	22.1 µM (inactive)	33.9 µM (inactive)	22.4 µM (inactive)	17.3 µM (inactive)	20.3 µM (inactive)	–	25.6 µM (inactive)	31 µM (inactive)	16.1 µM (inactive)	20.2 µM (inactive)	28.1 µM (inactive)	–	34.8 µM (inactive)	–
Cc1ccc(/C=C/c2n[nH]c(N/N=C/c3ccc4c(c3)OCO4)nc2=O)cc1	–	15.5 µM (inactive)	19.5 µM (inactive)	9.23 µM (inactive)	30.1 µM (inactive)	17.3 µM (inactive)	33.7 µM (inactive)	38.5 µM (inactive)	40.1 µM (inactive)	19.6 µM (inactive)	17.2 µM (inactive)	15 µM (inactive)	26.9 µM (inactive)	19.3 µM (inactive)	21 µM (inactive)	13.6 µM (inactive)	22.3 µM (inactive)	18.7 µM (inactive)	35.3 µM (inactive)	30.5 µM (inactive)
CCOC(=O)c1ccc(C(=O)/C(C(C)=O)=C2\CCCN2C)n1C	18.5 µM (inactive)	27.5 µM (inactive)	69.7 µM (inactive)	83.8 µM (inactive)	42.9 µM (inactive)	29.1 µM (inactive)	56.9 µM (inactive)	> 100 µM (inactive)	> 100 µM (inactive)	53.8 µM (inactive)	> 100 µM (inactive)	10.9 µM (inactive)	> 100 µM (inactive)	71.1 µM (inactive)	> 100 µM (inactive)	> 100 µM (inactive)	> 100 µM (inactive)	52.5 µM (inactive)	18.2 µM (inactive)	30.7 µM (inactive)
CCNC(=O)c1c(O)nc2ccccc2c1O	35.6 µM (inactive)	67.5 µM (inactive)	43.1 µM (inactive)	> 100 µM (inactive)	43.5 µM (inactive)	97.7 µM (inactive)	80.9 µM (inactive)	55.6 µM (inactive)	> 100 µM (inactive)	51.5 µM (inactive)	63.4 µM (inactive)	> 100 µM (inactive)	> 100 µM (inactive)	70.6 µM (inactive)	49.9 µM (inactive)	40.5 µM (inactive)	> 100 µM (inactive)	52.2 µM (inactive)	32.3 µM (inactive)	–
CNC(=O)c1ccc(C(=O)NCCCCCN(O)C(=O)CCC(=O)NCCCCCN(O)C(=O)CCC(=O)NCCCCCN(O)C(C)=O)c(O)c1O	23.8 µM (inactive)	53.7 µM (inactive)	39.3 µM (inactive)	41.6 µM (inactive)	33.7 µM (inactive)	58.5 µM (inactive)	42.6 µM (inactive)	54.7 µM (inactive)	68.5 µM (inactive)	18.3 µM (inactive)	23.1 µM (inactive)	> 100 µM (inactive)	> 100 µM (inactive)	1.07 µM (active)	86.7 µM (inactive)	> 100 µM (inactive)	> 100 µM (inactive)	5 µM (inactive)	–	45.4 µM (inactive)
CC1/C=C/C=C/CC/C=C/C=C/C=C/C=C/C(OC2OC(C)C(O)C(N)C2O)CC2OC(CC(O)C(O)CCC(O)CC(O)CC(O)CC(=O)OC(C)C(C)C1O)CC(O)C2C(=O)O (configuration not stated)	23.9 µM (inactive)	17.6 µM (inactive)	20.7 µM (inactive)	21.3 µM (inactive)	19.7 µM (inactive)	26.8 µM (inactive)	22.3 µM (inactive)	18 µM (inactive)	17 µM (inactive)	18.2 µM (inactive)	24.9 µM (inactive)	18.6 µM (inactive)	13.5 µM (inactive)	15.2 µM (inactive)	18.8 µM (inactive)	24.8 µM (inactive)	14.8 µM (inactive)	28.8 µM (inactive)	16.7 µM (inactive)	23.2 µM (inactive)
